Assay results as given in US20030114467A1, “Novel pyrazolo- and pyrrolo-pyrimidines and uses thereof” (priority 2001, published 2003).

Experiment: Hydroxyapatite assay (hydroxyapatite adsorption chromatography, bone-targeting potential)
Format: physicochemical
Conditions: corrected retention K=(retention time-void time)/void; TSK-Gel HA 1000 HPLC column; linear gradient 10 mM to 500 mM sodium phosphate, 0.15 N NaCl, pH 6.8
Method: Hydroxyapatite is the principal mineral component of bone. Hydroxyapatite adsorption chromatography is used as an assay to evaluate the bone-targeting potential of both individual bone-targeting moieties (“monomers”) and of pharmaceuticals incorporating bone-targeting groups.
Method: The rentention time of a test compound is measured using a linear gradient from 10 mM sodium phosphate, 0.15 N NaCl, pH=6.8 to 500 mM sodium phosphate, 0.15 N NaCl, […] on a TSK-Gel HA 1000 high pressure liquid chromatography column (7.5 mm×75 mm). The rentention time of the compound is expressed in terms of K=(retention time-void time)/void. This K value is corrected using two reference compounds to correct from inter-column and inter-system variation to obtain a K′ value.
Reference Compounds: K′ values were determined for known bone targeted compounds, the bisphosphonate, alendronate and tetracycline.

For `NCCCC(O)(P(=O)(O)O)P(=O)(O)O` [Alendronate, alendronate], which “K′ value” is on record?
The value was 3.7.
